Where “and” joins values, the source holds several entries; their conditions need not be identical. Equal entries are not always repeated. Toxic doses and inconclusive results are not listed. No stated cut-off is given here; in the data, active means T/C of 150% or more; inactive means T/C below 125%. Peptide text beside a SMILES is read from it. * marks the point of attachment. Cbz = O=C(OCc1ccccc1)*
Tested on: L1210 leukemia ip in BDF1 mice, survival T/C
Assay: NCI In Vivo Anticancer Drug Screen. Data for tumor model L1210 Leukemia (intraperitoneal) in B6D2F1 (BDF1) mice
Conditions: endpoint: mean survival time, higher = longer survival
Procedure, shortened: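 Mice bearing the transplanted tumor received compound or vehicle. Survival of the treated group was divided by that of the vehicle-treated control group to give the ratio.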

[1] = dose: 100.0 mg/kg/injection, schedule: Q01DX009 (ip), vehicle: Klucel (hydroxypropylcellulose) (HPC)
[2] = dose: 200.0 mg/kg/injection, schedule: Q01DX009 (ip), vehicle: Klucel (hydroxypropylcellulose) (HPC)
[3] = dose: 400.0 mg/kg/injection, schedule: Q01DX009 (ip), vehicle: Klucel (hydroxypropylcellulose) (HPC)
[4] = dose: 100.0 mg/kg/injection, schedule: Q01DX009 (ip), vehicle: saline with Tween-80
[5] = dose: 200.0 mg/kg/injection, schedule: Q01DX009 (ip), vehicle: saline with Tween-80
[6] = dose: 400.0 mg/kg/injection, schedule: Q01DX009 (ip), vehicle: saline with Tween-80
[7] = dose: 100.0 mg/kg/injection, schedule: Q04DX003 (ip), vehicle: saline

Measured: T/C

COc1ccc(NC(=O)Oc2cc(C)c(Cl)cc2C(C)C)c(OC)c1
inactive: [1] 101 % of control | [2] 101 % of control | [3] 92 % of control

CCCCn1cnc2c(SC3CCCC3)ncnc21
inactive: dose: 100.0 mg/kg/injection, schedule: Q01DX001 (ip), vehicle: other 98 % of control | dose: 200.0 mg/kg/injection, schedule: Q01DX001 (ip), vehicle: other 96 % of control | dose: 400.0 mg/kg/injection, schedule: Q01DX001 (ip), vehicle: other 93 % of control

CCOC(=O)C(C(C)=O)c1cc(NS(=O)(=O)c2ccccc2)ccc1O (stereo not drawn)
inactive: [4] 95 % of control | [5] 96 % of control | [6] 93 % of control

OC1CC[N-]CC1.OC1CC[N-]CC1.[Cl][Pt+2]([Cl])([Cl])[Cl]
inactive: dose: 12.5 mg/kg/injection, schedule: Q01DX009 (ip), vehicle: saline with Tween-80 100 % of control | dose: 25.0 mg/kg/injection, schedule: Q01DX009 (ip), vehicle: saline with Tween-80 103 % of control | dose: 25.0 mg/kg/injection, schedule: Q04DX003 (ip), vehicle: saline with Tween-80 100 % of control | dose: 50.0 mg/kg/injection, schedule: Q01DX009 (ip), vehicle: saline with Tween-80 92 % of control | dose: 50.0 mg/kg/injection, schedule: Q04DX003 (ip), vehicle: saline with Tween-80 107 % of control | dose: 100.0 mg/kg/injection, schedule: Q04DX003 (ip), vehicle: saline with Tween-80 112 % of control and 119 % of control

C1CCN2CC3CC(CN4CCCCC34)C2C1 (stereo not drawn)
inactive: dose: 10.0 mg/kg/injection, schedule: Q01DX009 (ip), vehicle: saline 104 % of control | dose: 20.0 mg/kg/injection, schedule: Q01DX009 (ip), vehicle: saline 102 % of control | dose: 20.0 mg/kg/injection, schedule: Q04DX003 (ip), vehicle: saline 100 % of control | dose: 40.0 mg/kg/injection, schedule: Q01DX009 (ip), vehicle: saline 100 % of control | dose: 40.0 mg/kg/injection, schedule: Q04DX003 (ip), vehicle: saline 96 % of control

CCCCCCCCOc1ccc(C=Nc2ccc(CC)cc2)cc1
inactive: [1] 97 % of control | [2] 86 % of control | [3] 91 % of control

C=CCCCCCCCC[CH2][Sn]([Cl])([Cl])[Cl]
inactive: dose: 50.0 mg/kg/injection, schedule: Q04DX003 (ip), vehicle: saline 93 % of control | [7] 101 % of control

ClC1=C(Cl)C2(Cl)C(COc3ccc(Cl)cc3)CC1(Cl)C2(Cl)Cl (stereo not drawn)
inactive: dose: 50.0 mg/kg/injection, schedule: Q01DX009 (ip), vehicle: other 91 % of control | [1] 94 % of control | dose: 100.0 mg/kg/injection, schedule: Q04DX003 (ip), vehicle: other 109 % of control | [2] 96 % of control | dose: 200.0 mg/kg/injection, schedule: Q04DX003 (ip), vehicle: other 104 % of control | [3] 96 % of control

CCOC(=O)C(NC=O)(C(=O)OCC)C(C)c1c[nH]c2ccccc12 (stereo not drawn)
inactive: dose: 100.0 mg/kg/injection, schedule: Q01DX001 (ip), vehicle: saline with Tween-80 93 % of control | [4] 102 % of control | dose: 200.0 mg/kg/injection, schedule: Q01DX001 (ip), vehicle: saline with Tween-80 94 % of control | [5] 98 % of control | dose: 400.0 mg/kg/injection, schedule: Q01DX001 (ip), vehicle: saline with Tween-80 100 % of control | [6] 94 % of control

CCC(C(N)=O)N1C(=O)C2C3CCC(O3)C2C1=O (stereo not drawn)
inactive: [7] 101 % of control | dose: 200.0 mg/kg/injection, schedule: Q04DX003 (ip), vehicle: saline 97 % of control | dose: 400.0 mg/kg/injection, schedule: Q04DX003 (ip), vehicle: saline 101 % of control

COC(=O)C(CC(C)C)NC(=O)C(CC(N)=O)NC(=O)C(NC(=O)OCc1ccccc1)C(C)C (stereo not drawn) (Cbz-Val-Asn-Leu-OMe; configuration not given here)
inactive: dose: 100.0 mg/kg/injection, schedule: Q01DX001 (ip), vehicle: saline 95 % of control | dose: 200.0 mg/kg/injection, schedule: Q01DX001 (ip), vehicle: saline 91 % of control | dose: 400.0 mg/kg/injection, schedule: Q01DX001 (ip), vehicle: saline 91 % of control

Source: PubChem BioAssay AID248 (DTP/NCI, 2004)
